Measured values as given in patent US20090209460A1, “COMPOSITIONS AND METHODS FOR TREATING OBESITY AND RELATED METABOLIC DISORDERS” (Amylin Pharmaceuticals, Inc., priority 2005, published 2009).
Non-standard residues stand in square brackets, D forms with d. Residues, ends and D or L forms follow the SMILES beside them. No end group written: not given here. beta turn mimic B = not defined here

Assays:
NIH/Swiss mice = assay: acute food intake assay, lean overnight-fasted NIH/Swiss mice, intraperitoneal injection; type: in vivo, mouse; settings: for Food Intake Inhibition: mouse assay, dose of 200 mg/kg, measured at 60 minutes
Method: The effect of NMX Peptides, FNX Peptides or NMX Receptor agonists on food intake when systemically administered was investigated using an acute food intake assay. This assay measured food consumption in lean subjects. Lean, group-housed, overnight-fasted NIH/Swiss mice. All in vivo tests were performed with peripheral injections of peptide. […] The dose-response data are presented herein. The protocol is described below. Female NIH/Swiss mice (8-24 weeks old) were group housed with a 12:12 hour light:dark cycle, with lights on at 0300. Water and a standard pelleted mouse chow diet are available ad libitum, except as noted. Animals are fasted starting at approximately 1530 hrs, 1 day prior to experiment. At time=0 min, all animals are given an intraperitoneal injection of vehicle or polypeptide in a volume of 200 uL/mouse and immediately given a pre-weighed amount (10-15 g) of the standard chow. Food is removed and weighed at 30, 60, and 120 minutes to determine the amount of food consumed. The effects of treatment on food intake are expressed as % change relative to control.

[1] = body weight and food intake in mice with diet induced obesity (mouse DIO), osmotic pump; type: in vivo; settings: mouse DIO
Method: The effect of FN38 and related compounds on body weight and food intake in obese subjects was investigated. Mice having diet induced obesity (DIO) were used. All in vivo tests were performed with peripheral injections of peptide. […] 4-week-old male C57BL/6 mice were group housed with water and a standard pelleted mouse chow diet available ad libitum, except as noted, and were maintained on a on a high fat diet (58% kcal from fat) for 4 weeks prior to the experiment. At the end of fattening period, osmotic pumps were implanted interscapularly under anesthesia. Mice received pumps continuously delivering vehicle (50% DMSO in water or saline) or polypeptide at the dose indicated. Food intake and body weight measurements were obtained weekly.

[2] = brush border membrane (BBM) stability assay; type: in vitro ADME, human; settings: for remaining at 5 h: brush border membrane extract (e.g. kidney), percent compound remaining after a 5 hour incubation, human brush border membrane assay, read-out: hBBM
Method: Some exemplary NMX Peptides and FNX Peptides were tested for stability in a brush border membrane (BBM) assay as described herein. To determine the enzymatic stability of peptide hormones peptides are incubated with a preparation of human brush border membranes extract (e.g., kidney), and the stability of the peptide is determined by measuring concentration of the intact peptide at specific intervals. The brush border membrane extract contains dipeptidyl peptidase IV (DPP-IV), neutral endopeptidases, peptidyl-dipeptidase A, carboxypeptidases and aminopeptidases. These are the primary enzymes that degrade peptides in vivo and are found in the kidneys, liver, lungs and pancreas. Resistance against these human proteases would increase peptide half-life. In the BBM assay test peptide was subjected to digestion over a period of five (5) hours with human brush border membrane extracts, e.g. kidney, at 37° C. At desired timepoints digestion was stopped by addition of quench solution, typically 50% ACN, 1% FA. After centrifugation to remove membrane debris, supernatant was subjected to mass spectrometry using a selected ion scan for the intact molecule of interest. Values are expressed as a percent of stable. A value of at least 80 or greater is regarded as an extremely stable molecule. A value of at least 70 or greater is a molecule with significant stability.

[3] = test system: mice with diet induced obesity (mouse DIO); assay: cumulative food intake in mouse DIO after IP injection (FIGS. 6 and 7); type: in vivo; settings: injected IP at t=0; measured at 30, 60, 120 and 180 min
Method: The activities of the following compounds are shown: A, [MimicB36] FN38; B, [His37] FN38; C,
[His35] FN38; D, [Phe33] FN38; E, [Val33] FN38; F, Des-(Ser6,Lys7,Thr8,Gln9) FN38; G, Des-Val16,Val17-FN38; H, [Phe31] FN38; I, Des-(Val16,Val17,Phe24,Ala25,Ser26,Gln27) FN38; J, Des-(Phe1,Leu2,Phe3,His4)FN38; and K, Des-(Phe24,Ala25,Ser26,Gln27)-FN38. […] Points represent mean±sd of n=4 cages (3 mice/cage). Peptide was injected IP at t=0. Food was introduced immediately after injection and amount consumed measured at t=30, 60, 120, and 180 min. In the figure, * p<0.05 vs. vehicle control; ANOVA, Dunnett's test.

| Compound | Food Intake Inhibition (NIH/Swiss mice) [%] | remaining at 5 h [2] [%] | cumulative food intake in mouse DIO (FIGS. 6A, 6B, 7A, 7B) [3] | also measured |
| --- | --- | --- | --- | --- |
| CC[C@H](C)[C@H](NC(=O)[C@@H](NC(=O)CNC(=O)CNC(=O)[C@@H]1CCCN1C(=O)[C@@H](NC(=O)[C@H](CCC(N)=O)NC(=O)[C@@H](NC(=O)[C@H](CCC(=O)O)NC(=O)[C@H](CCC(=O)O)NC(=O)[C@H](CC(=O)O)NC(=O)[C@H](CO)NC(=O)[C@H](CC(N)=O)NC(=O)[C@H](CO)NC(=O)[C@H](CCCCN)NC(=O)CNC(=O)[C@H](CC(C)C)NC(=O)[C@H](CCCCN)NC(=O)[C@H](CCC(N)=O)NC(=O)[C@@H](NC(=O)[C@H](CCCCN)NC(=O)[C@H](CO)NC(=O)[C@H](Cc1ccc(O)cc1)NC(=O)[C@H](Cc1c[nH]cn1)NC(=O)[C@H](Cc1ccccc1)NC(=O)[C@H](CC(C)C)NC(=O)[C@@H](N)Cc1ccccc1)[C@@H](C)O)C(C)C)C(C)C)C(C)C)C(=O)N[C@@H](CO)C(=O)N[C@@H](CC(N)=O)C(=O)NCC(=O)N[C@@H](Cc1ccc(O)cc1)C(=O)N[C@@H](Cc1ccccc1)C(=O)N[C@@H](CC(C)C)C(=O)N[C@@H](Cc1ccccc1)C(=O)N[C@@H](CCCNC(=N)N)C(=O)N1CCC[C@H]1C(=O)N[C@@H](CCCNC(=N)N)C(=O)N[C@@H](CC(N)=O)C(N)=O [Compound 165063] (H-FLFHYSKTQKLGKSNSDEEVQVPGGVISNGYFLFRPRN-NH2; N-terminus assumed) | −88 | 73 |  | reduction of food intake (NIH/Swiss mice; administered systemically (i.p. to mice), dose and time not stated): at least 89%; FI (60′, 200) (NIH/Swiss mice; food intake, % change relative to control, 60 min, dose 200): −88%; ED50 at t = 60 (NIH/Swiss mice; food intake, t = 60): 6 nmol/kg; d 7 BWt loss ([1]; day 7): 5.1%; d 14 BWt loss ([1]; day 14): 8.6%; BBM ([2]; percent of stable, human brush border membrane extracts, five hours, 37° C.): 73% |
| CC(C)C[C@H](NC(=O)[C@H](CCCCN)NC(=O)[C@H](CCC(N)=O)NC(=O)[C@@H](NC(=O)[C@H](CCCCN)NC(=O)[C@H](CO)NC(=O)[C@H](Cc1ccc(O)cc1)NC(=O)[C@H](Cc1c[nH]cn1)NC(=O)[C@H](Cc1ccccc1)NC(=O)[C@H](CC(C)C)NC(=O)[C@@H](N)Cc1ccccc1)[C@@H](C)O)C(=O)NCC(=O)N[C@@H](CCCCN)C(=O)N[C@@H](CO)C(=O)N[C@@H](CC(N)=O)C(=O)N[C@H](C(=O)N[C@H](C(=O)N[C@@H](CCC(=O)O)C(=O)N[C@@H](CCC(=O)O)C(=O)N[C@@H](CC(C)C)C(=O)N[C@@H](CCC(N)=O)C(=O)N[C@@H](CO)C(=O)N1CCC[C@H]1C(=O)N[C@@H](Cc1ccccc1)C(=O)N[C@@H](C)C(=O)N[C@@H](CO)C(=O)N[C@@H](CCC(N)=O)C(=O)N[C@@H](CO)C(=O)N[C@@H](CCCNC(=N)N)C(=O)NCC(=O)N[C@@H](Cc1ccc(O)cc1)C(=O)N[C@@H](Cc1ccccc1)C(=O)N[C@@H](CC(C)C)C(=O)N[C@@H](Cc1ccccc1)C(=O)N[C@@H](CCCNC(=N)N)C(=O)N1CCC[C@H]1C(=O)N[C@@H](Cc1c[nH]cn1)C(=O)N[C@@H](CC(N)=O)C(N)=O)C(C)C)C(C)C [Compound B] (H-FLFHYSKTQKLGKSNVVEELQSPFASQSRGYFLFRPHN-NH2; N-terminus assumed) |  |  | either not active or weakly active |  |
| CC(C)C[C@H](NC(=O)[C@H](CCCCN)NC(=O)[C@H](CCC(N)=O)NC(=O)[C@@H](NC(=O)[C@H](CCCCN)NC(=O)[C@H](CO)NC(=O)[C@H](Cc1ccc(O)cc1)NC(=O)[C@H](Cc1c[nH]cn1)NC(=O)[C@H](Cc1ccccc1)NC(=O)[C@H](CC(C)C)NC(=O)[C@@H](N)Cc1ccccc1)[C@@H](C)O)C(=O)NCC(=O)N[C@@H](CCCCN)C(=O)N[C@@H](CO)C(=O)N[C@@H](CC(N)=O)C(=O)N[C@H](C(=O)N[C@H](C(=O)N[C@@H](CCC(=O)O)C(=O)N[C@@H](CCC(=O)O)C(=O)N[C@@H](CC(C)C)C(=O)N[C@@H](CCC(N)=O)C(=O)N[C@@H](CO)C(=O)N1CCC[C@H]1C(=O)N[C@@H](Cc1ccccc1)C(=O)N[C@@H](C)C(=O)N[C@@H](CO)C(=O)N[C@@H](CCC(N)=O)C(=O)N[C@@H](CO)C(=O)N[C@@H](CCCNC(=N)N)C(=O)NCC(=O)N[C@@H](Cc1ccc(O)cc1)C(=O)N[C@@H](Cc1ccccc1)C(=O)N[C@@H](CC(C)C)C(=O)N[C@@H](Cc1ccccc1)C(=O)N[C@@H](Cc1c[nH]cn1)C(=O)N1CCC[C@H]1C(=O)N[C@@H](CCCNC(=N)N)C(=O)N[C@@H](CC(N)=O)C(N)=O)C(C)C)C(C)C [Compound C] (H-FLFHYSKTQKLGKSNVVEELQSPFASQSRGYFLFHPRN-NH2; N-terminus assumed) |  |  | either not active or weakly active |  |
| CC(C)C[C@H](NC(=O)[C@H](Cc1ccccc1)NC(=O)[C@H](Cc1ccc(O)cc1)NC(=O)CNC(=O)[C@H](CCCNC(=N)N)NC(=O)[C@H](CO)NC(=O)[C@H](CCC(N)=O)NC(=O)[C@H](CO)NC(=O)[C@H](C)NC(=O)[C@H](Cc1ccccc1)NC(=O)[C@H](CO)NC(=O)[C@H](Cc1ccc(O)cc1)NC(=O)[C@H](Cc1c[nH]cn1)NC(=O)[C@H](Cc1ccccc1)NC(=O)[C@H](CC(C)C)NC(=O)[C@@H](N)Cc1ccccc1)C(=O)N[C@@H](Cc1ccccc1)C(=O)N[C@@H](CCCNC(=N)N)C(=O)N1CCC[C@H]1C(=O)N[C@@H](CCCNC(=N)N)C(=O)N[C@@H](CC(N)=O)C(N)=O [Des-(Lys7-Pro23)FN38] (H-FLFHYSFASQSRGYFLFRPRN-NH2; N-terminus assumed) | −26 | 95 | reduction of cumulative food intake |  |
| CC(C)C[C@H](NC(=O)[C@H](CCCCN)NC(=O)[C@H](CCC(N)=O)NC(=O)[C@@H](NC(=O)[C@H](CCCCN)NC(=O)[C@H](CO)NC(=O)[C@H](Cc1ccc(O)cc1)NC(=O)[C@H](Cc1c[nH]cn1)NC(=O)[C@H](Cc1ccccc1)NC(=O)[C@H](CC(C)C)NC(=O)[C@@H](N)Cc1ccccc1)[C@@H](C)O)C(=O)NCC(=O)N[C@@H](CCCCN)C(=O)N[C@@H](CO)C(=O)N[C@@H](CC(N)=O)C(=O)N[C@@H](CCC(=O)O)C(=O)N[C@@H](CCC(=O)O)C(=O)N[C@@H](CC(C)C)C(=O)N[C@@H](CCC(N)=O)C(=O)N[C@@H](CO)C(=O)N1CCC[C@H]1C(=O)N[C@@H](CO)C(=O)N[C@@H](CCCNC(=N)N)C(=O)NCC(=O)N[C@@H](Cc1ccc(O)cc1)C(=O)N[C@@H](Cc1ccccc1)C(=O)N[C@@H](CC(C)C)C(=O)N[C@@H](Cc1ccccc1)C(=O)N[C@@H](CCCCN)C(=O)N1CCC[C@H]1C(=O)N[C@@H](CCCNC(=N)N)C(=O)N[C@@H](CC(N)=O)C(N)=O [Des-(Val16,Val17,Phe24-Gln27)[K35]FN38] (H-FLFHYSKTQKLGKSNEELQSPSRGYFLFKPRN-NH2; N-terminus assumed) | −54 | 76 | reduction of cumulative food intake |  |
| FLFHYSKTQKLGKSNVVEELQSPFASQSRGYFLFR(beta turn mimic B)RN-NH2 (FLFHYSKTQKLGKSNVVEELQSPFASQSRGYFLFR[beta turn mimic B]RN-NH2; reading uncertain) [Compound A] |  |  | either not active or weakly active |  |
